Consider 8 compounds from ChEMBL document CHEMBL3091453, “Bioactive compounds from Stuhlmannia moavi from the Madagascar dry forest” (Bioorg Med Chem, 2013).

Calls of active or inactive are those of the source. The rule behind the calls is not given here.

For one experiment, the system named is A2780. In words: Antiproliferative activity against human A2780 cells after 2 days by Alamar Blue assay. It counts as functional, cell-based. As to conditions: for IC50: A2780, 48 h.
The next experiment relates to Plasmodium falciparum. In words: Antimalarial activity against chloroquine/mefloquine-resistant Plasmodium falciparum Dd2 after 72 hrs by SYBR Green I assay. It counts as functional. To be noted: Dd2, 72 h.

On to `COc1cc(O)cc(/C=C/c2ccc(O)c(O)c2)c1`, for which the results for the IC50 in the experiment on A2780 and in the experiment on Plasmodium falciparum were 54 µM and 27 µM, respectively.

For `COC1=CC(=O)c2c(O)c(C(C)=O)c(C)c(O)c2C1=O`, the IC50 – broadly, the concentration at which inhibition is half-maximal – in the experiment on A2780 came to 8.1 µM; in the experiment on Plasmodium falciparum, 24 µM.

`COc1cc(/C=C/c2cc(O)cc(O)c2)ccc1O`: the outcome in the experiment on A2780 was Active.

For `C[C@@H]1CC[C@H]2[C@@H](C)C(=O)O[C@@H]3O[C@@]4(C)CC[C@@H]1[C@]32OO4` [ARTEMISININ], inhibition in the experiment on Plasmodium falciparum was half-maximal at 0.007 µM (IC50).

On to `COc1ccc(/C=C2\COc3cc(O)ccc3C2=O)cc1` [BONDUCELLIN], for which the IC50 was 10.6 µM with A2780 and 26 µM in the experiment on Plasmodium falciparum.

In the experiment on A2780, `CC(=O)O[C@H]1C(=O)[C@@]2(C)[C@H]([C@H](OC(=O)c3ccccc3)[C@]3(O)C[C@H](OC(=O)[C@H](O)[C@@H](NC(=O)c4ccccc4)c4ccccc4)C(C)=C1C3(C)C)[C@]1(OC(C)=O)CO[C@@H]1C[C@@H]2O` [PACLITAXEL] showed an IC50 of 0.024 µM.

With `Oc1cc(O)cc(/C=C/c2ccc(O)c(O)c2)c1` [PICEATANNOL], in the experiment on A2780, the IC50 is 41 µM.

On to `Oc1ccc(/C=C/c2cc(O)cc(O)c2)cc1` [RESVERATROL], for which the IC50 with A2780 was 74 µM.
